Key:
C57BL/6 mice [1] = experiment: Oxygen-induced retinopathy (OIR) retinal neovascularization model; assay type: in vivo, mouse; settings: FIGS. 9 and 10; for inhibition of angiogenesis (retinal neovascularization) in the OIR model: intravitreal injection at P12, eyes at P17, compared with PBS or scramble peptide, p<0.01
Experimental: The neonatal mouse (C57BL/6) pups of normoxia group (serving as control) were kept in room air until postnatal day 12 (P12), while the pups of OIR group were maintained with their nursing mothers for 5 days in 75% oxygen at P7 and then returned to room air (relative hypoxia) so as to generate oxygen-induced neovascularization at P12. 1 μl of Dsg2 peptide (25 μg), scramble peptide (25 μg) and Avastin (10 μg) were intravitreally injected into mouse eyes at P12, respectively. The animals were killed, and the mouse eyes were enucleated at P17.
Mouse eye cups were fixed in 4% paraformaldehyde for 2 hours. The retina was carefully separated from eye cup, and then incubated with fluorescein-labeled isolectin-B4 (Life technologies) at 4° C. overnight. Samples were coverslipped with Vectashield medium (Vector Laboratories), and the lectin labeling was examined by use of the 20× objective of a Zeiss LSM-510 confocal microscope. Fluorescence volume measurements were recorded by creating image stacks of optical slices within lesions with QWIN software. Values for implicit volume were designated as mean total surface area.

[2] = test system: human umbilical vein endothelial cells (HUVECs); experiment: Matrigel angiogenesis assay (tube formation) with HUVECs; assay type: cell-based; settings: FIGS. 5 and 6; for inhibition of angiogenesis of HUVEC cells on the Matrigel: 24 hours
Experimental: (§1) A total of 200 μl Matrigel was added into wells of a 24-well plate and polymerized for 30 minutes at 37° C. EPC suspensions containing various concentrations of Dsg2 peptide (0.25 mg/ml, 0.5 mg/ml, or 1 mg/ml), scramble peptide (1 mg/ml) or Avastin (10 μg/ml) were plated on the Matrigel-coated wells at a density of 5×10^4 cells (EPCs, or HUVECs) in MV2 medium containing 2% FBS for 24 hours at 37° C. in a 5% CO2 humidified incubator. Each sample was tested in triplicate in the same plate, and wells were photographed with a Leica camera (×40 magnification).
(§2) Tube length in relative to the control was quantified by measuring tubes in 5 randomly chosen fields from each well with QWIN software. Experiments were repeated more than three times. The values were expressed as the means±S.D. for the three independent experiments.

[3] = test system: human endothelial progenitor cells (EPCs); experiment: Matrigel angiogenesis assay (tube formation) with EPCs; assay type: cell-based; settings: for inhibition of angiogenesis in EPCs: FIGS. 3 and 4
Experimental: as §1, §2

C57BL/6 mice [4] = experiment: Matrigel plug assay; assay type: in vivo, mouse; settings: 7 days
Experimental: 0.5 ml of growth factor-reduced liquid Matrigel respectively containing: (1) heparin (60 U/mL); (2) heparin (60 U/mL), VEGF (10 ng/ml), and PBS; (3) heparin (60 U/mL), VEGF (10 ng/ml), and scramble peptide (1 mg/ml); and (4) heparin (60 U/mL), VEGF (10 ng/ml), and Dsg2 peptide (1 mg/ml) were subcutaneously injecting into the skin near the abdominal midline of C57BL/6 mice. 7 days after injection, mice were euthanized, and Matrigel plugs were surgically removed and analyzed.
For macroscopic analysis of angiogenesis, hemoglobin content in Matrigel was measured with Drabkin reagent 525 (Sigma-Aldrich). Briefly, the Matrigel plug sample was re-liquefied by being place at 4° C. on ice with red cell lysis reagent for 24 hours. After brief centrifugation, 20 μl of supernatant was added to 100 μl of Drabkin solution. The mixture was allowed to stand 30 minute at room temperature, and the absorbance was measured at 540 nm. The obtained hemoglobin content was normalized to the plug weight and the value was expressed as μg hemoglobin/mg Matrigel plug.

| Substance | inhibition of angiogenesis (retinal neovascularization) in the OIR model (C57BL/6 mice [1]) | inhibition of angiogenesis of HUVEC cells on the Matrigel [2] | inhibition of angiogenesis (tube formation) of EPCs on Matrigel ([3]; fragments at 1.0 mg/ml, p<0.05, FIG. 2) | anti-angiogenic efficacy compared with Avastin (C57BL/6 mice [1]; OIR model, intravitreal) | efficacy in inhibiting tube formation compared with Avastin ([2]; HUVECs on Matrigel) | inhibition of angiogenesis in EPCs ([3]; 0.5 mg/ml (200 uM)) | inhibition of angiogenesis in EPCs ([3]; 1.0 mg/ml (400 uM)) | reduction of tube formation ([3]; 1.0 mg/ml (400 uM), p<0.05) | relative tube length in relative to the control group ([3]; 1.0 mg/ml (400 uM), p<0.05) | formation of newly formed blood vessels in Matrigel plug (C57BL/6 mice [4]; 1 mg/ml in plug with heparin and VEGF, compared with PBS or scramble peptide, FIG. 7) | hemoglobin content of Matrigel plug (C57BL/6 mice [4]; 1 mg/ml in plug, vs plug containing PBS or scramble peptide, p<0.05, FIG. 8) |
| --- | --- | --- | --- | --- | --- | --- | --- | --- | --- | --- | --- |
| Bevacizumab [Avastin, reference compound] | significantly inhibited the angiogenesis | capable of inhibiting angiogenesis |  |  |  |  |  |  |  |  |  |
| IVSLEPAYPP (IP10) [fragment of the predicted EC2 domain of Dsg2 peptide] |  |  | can inhibit the angiogenesis |  |  |  |  |  |  |  |  |
| KINATDADEPNTLNSKISYRC (extra C-terminal cysteine; Dsg2-derived peptide) [Dsg2-derived short peptide, KR20 fragment conjugated with one extra cysteine residue] | significantly inhibited the angiogenesis | capable of inhibiting angiogenesis |  | better than that of Avastin | more effective than Avastin | significantly inhibited angiogenesis | significantly inhibited angiogenesis | more than 50% | less than 50% | capable of inhibiting the formation of newly formed blood vessels | significantly lower |

From US9925238B2, “Use of peptide for treating angiogenesis-related diseases” (MacKay Memorial Hospital, priority 2014, dated 2018)
